Each block holds one molecule with its values, some of them ahead of it.
Assays:
Cannabinoid receptor 1 [1] = target: T1, Cannabinoid receptor 1 (Homo sapiens, UniProt P21554); assay: Negative allosteric modulation of human CB1 receptor stably expressed in CHO-RD-HGA16 cells assessed as inhibition of CP55940-induced intracellular calcium mobilization incubated for 15 mins by FLIPR assay; type: functional, cell-based
Cannabinoid receptor 1 [2] = target: T1, Cannabinoid receptor 1; assay: Agonist activity at human CB1 receptor stably expressed in CHO-RD-HGA16 cells assessed as increase in intracellular calcium mobilization at 10 uM by FLIPR assay relative to CP55940; type: functional, cell-based
[3] = target: Cannabinoid receptor 2 (Homo sapiens) (UniProt P34972); assay: Antagonist activity at human CB2 receptor stably expressed in CHO-RD-HGA16 cells assessed as inhibition of CP55940-induced intracellular calcium mobilization at 10 uM by FLIPR assay relative to CP55940; type: functional, cell-based; set-up: scale not given: the % may be the effect or the level left
Cannabinoid receptor 1 [4] = target: Cannabinoid receptor 1 (Mus musculus, UniProt P47746); assay: Negative allosteric modulation of CD-1 mouse CB1 receptor extracted from cerebellum membrane in presence of [35S]GTP-gammaS; type: cell membranes
[5] = Drug concentration in brain of Sprague-Dawley rat at 5.6 mg/kg, ip measured after 0.5 hrs by LC-MS/MS analysis; type: ADME, organism-based; conditions: read-out: Ct
[6] = Stability in human hepatocytes assessed as clearance at 1 uM measured up to 120 mins by LC/MS/MS analysis; type: ADME, cell-based, Hepatocyte; conditions: 2 h
[7] = Protein binding in rat plasma at 1 uM incubated for 6 hrs by LC-MS/MS analysis; type: ADME, cell-free
[8] = Drug concentration in plasma of Sprague-Dawley rat at 5.6 mg/kg, ip measured after 8 hrs by LC-MS/MS analysis; type: ADME, organism-based
[9] = Stability in human liver microsomes assessed as half life at 1 uM preincubated for 10 mis followed by NADPH addition measured for 15 to 60 mins by LC-MS/MS analysis; type: ADME, Microsome; conditions: time 25-70 min
[10] = Drug concentration in plasma of Sprague-Dawley rat at 5.6 mg/kg, ip measured after 0.25 hrs by LC-MS/MS analysis; type: ADME, organism-based
[11] = Drug excretion in Sprague-Dawley rat at 1 mg/kg, iv measured after 4 hrs by LC-MS/MS analysis; type: ADME, organism-based; conditions: in vivo
[12] = Drug concentration in brain of Sprague-Dawley rat at 5.6 mg/kg, ip measured after 0.25 hrs by LC-MS/MS analysis; type: ADME, organism-based; conditions: read-out: Ct
[13] = Protein binding in human plasma at 1 uM incubated for 6 hrs by LC-MS/MS analysis; type: ADME, cell-free
[14] = Apparent permeability across basal to apical side in MDCK-MDR1 cells at 10 uM measured for 30 to 90 mins by LC-MS/MS analysis; type: ADME, cell-based, Canis lupus familiaris; conditions: dog, mdck-mdr1, 10 µM, time 30-90 min
[15] = Drug concentration in plasma of Sprague-Dawley rat at 5.6 mg/kg, ip measured after 1 hr by LC-MS/MS analysis; type: ADME, organism-based
[16] = Stability in human hepatocytes assessed as half life at 1 uM measured up to 120 mins by LC/MS/MS analysis; type: ADME, cell-based, Hepatocyte; conditions: 2 h
Cannabinoid receptor 1 [17] = target: T1, Cannabinoid receptor 1; assay: Negative allosteric modulation of human CB1 extracted from HEK293 cell membrane assessed as increase in forskolin-induced cAMP production preincubated for 15 mins followed by forskolin/CP55940 addition by BRET CAMYEL cAMP assay
[18] = Half life in Sprague-Dawley rat at 1 mg/kg, iv measured for 0.08 to 8 hrs by LC-MS/MS analysis; type: ADME, organism-based; conditions: in vivo, time 0.08-8 hrs
[19] = Protein binding in rat brain at 1 uM incubated for 6 hrs by LC-MS/MS analysis; type: ADME, tissue-based
[20] = Drug concentration in plasma of Sprague-Dawley rat at 5.6 mg/kg, ip measured after 0.5 hrs by LC-MS/MS analysis; type: ADME, organism-based
[21] = Drug concentration in brain of Sprague-Dawley rat at 5.6 mg/kg, ip measured after 8 hrs by LC-MS/MS analysis; type: ADME, organism-based; conditions: read-out: Ct
[22] = Apparent permeability across apical to basal side in MDCK-MDR1 cells at 10 uM measured for 30 to 90 mins by LC-MS/MS analysis; type: ADME, cell-based, Canis lupus familiaris; conditions: dog, mdck-mdr1, 10 µM, time 30-90 min
[23] = Drug concentration in brain of Sprague-Dawley rat at 5.6 mg/kg, ip measured after 1 hr by LC-MS/MS analysis; type: ADME, organism-based; conditions: read-out: Ct
Cannabinoid receptor 1 [24] = target: T1, Cannabinoid receptor 1; assay: Negative allosteric modulation of human CB1 extracted from HEK293 cell membrane assessed as specific binding of [3H]CP55940 incubated for 90 mins; type: cell membranes
[25] = Drug concentration in plasma of Sprague-Dawley rat at 1 mg/kg, iv measured after 5 mins by LC-MS/MS analysis; type: ADME, organism-based
[26] = Stability in human liver microsomes assessed as clearance at 1 uM preincubated for 10 mis followed by NADPH addition measured for 15 to 60 mins by LC-MS/MS analysis; type: ADME, Microsome; conditions: time 25-70 min
[27] = Kinetic solubility of compound in PBS incubated for 2 hrs by LC-MS/MS analysis; type: physicochemical; conditions: read-out: Kinetic_solubility
Cannabinoid receptor 1 [28] = target: T1, Cannabinoid receptor 1; assay: Negative allosteric modulation of human CB1 receptor extracted from HEK293 cell membrane in presence of [35S]GTP-gammaS; type: cell membranes

T1 sequence (P21554 whole entry): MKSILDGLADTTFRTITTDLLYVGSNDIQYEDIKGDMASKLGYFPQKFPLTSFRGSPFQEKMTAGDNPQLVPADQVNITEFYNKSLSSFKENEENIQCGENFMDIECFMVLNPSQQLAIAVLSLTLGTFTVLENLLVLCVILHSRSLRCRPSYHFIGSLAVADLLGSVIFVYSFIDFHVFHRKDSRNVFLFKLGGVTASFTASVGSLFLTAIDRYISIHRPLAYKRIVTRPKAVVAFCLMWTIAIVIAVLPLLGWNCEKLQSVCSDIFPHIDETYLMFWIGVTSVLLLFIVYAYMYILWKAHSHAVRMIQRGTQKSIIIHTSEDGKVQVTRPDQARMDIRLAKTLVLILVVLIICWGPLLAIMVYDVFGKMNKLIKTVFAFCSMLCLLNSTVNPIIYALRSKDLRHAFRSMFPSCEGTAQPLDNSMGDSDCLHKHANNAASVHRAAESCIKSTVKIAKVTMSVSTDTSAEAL
Sequence of Cannabinoid receptor 2 (Homo sapiens) (P34972 whole entry): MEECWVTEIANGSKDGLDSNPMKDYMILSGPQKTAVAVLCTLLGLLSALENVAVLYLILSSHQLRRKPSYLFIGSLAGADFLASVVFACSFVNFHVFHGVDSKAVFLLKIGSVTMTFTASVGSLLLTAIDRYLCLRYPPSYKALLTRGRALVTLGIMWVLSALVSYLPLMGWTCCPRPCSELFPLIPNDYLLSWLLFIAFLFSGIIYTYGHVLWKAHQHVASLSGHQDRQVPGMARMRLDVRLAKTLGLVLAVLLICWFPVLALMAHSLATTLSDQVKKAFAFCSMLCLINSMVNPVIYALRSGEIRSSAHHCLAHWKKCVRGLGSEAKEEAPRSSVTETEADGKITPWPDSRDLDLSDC
Sequence of Cannabinoid receptor 1 (Mus musculus, UniProt P47746) (P47746 whole entry): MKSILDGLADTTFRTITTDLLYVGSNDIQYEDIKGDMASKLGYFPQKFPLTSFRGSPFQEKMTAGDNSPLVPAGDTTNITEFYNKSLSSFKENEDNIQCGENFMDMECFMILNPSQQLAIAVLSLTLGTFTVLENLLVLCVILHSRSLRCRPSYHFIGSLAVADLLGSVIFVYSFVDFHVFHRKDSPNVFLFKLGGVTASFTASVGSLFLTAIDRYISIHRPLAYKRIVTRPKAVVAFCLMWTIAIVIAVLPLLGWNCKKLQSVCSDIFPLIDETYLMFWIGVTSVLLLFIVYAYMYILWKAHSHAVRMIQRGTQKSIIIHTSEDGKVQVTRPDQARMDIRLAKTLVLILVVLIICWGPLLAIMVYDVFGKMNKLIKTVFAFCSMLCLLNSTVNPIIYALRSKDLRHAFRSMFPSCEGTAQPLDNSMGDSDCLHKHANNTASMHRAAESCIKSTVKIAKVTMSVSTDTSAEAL

IC50 (Cannabinoid receptor 1 [1]): 692 nM
Activity (Cannabinoid receptor 1 [2]): < 30%
Activity [3]: < 50%
SMILES: O=c1c(NCCc2cccs2)c(Nc2ccc(Cl)cc2)c1=O

IC50 (Cannabinoid receptor 1 [1]): 427 nM
Activity (Cannabinoid receptor 1 [2]): < 30%
Activity [3]: < 50%
SMILES: Cc1ccc(CCNc2c(Nc3ccc(Cl)cc3)c(=O)c2=O)cc1C

SMILES: Cc1ccccc1CCNc1c(Nc2ccc(Cl)cc2)c(=O)c1=O
IC50 (Cannabinoid receptor 1 [1]): 1260 nM
Activity (Cannabinoid receptor 1 [2]): < 30%
Activity [3]: < 50%

Activity (Cannabinoid receptor 1 [2]): < 30%
Activity [3]: < 50%
SMILES: O=c1c(NCCc2ccc(F)cc2)c(Nc2ccc(Cl)cc2)c1=O

IC50 (Cannabinoid receptor 1 [1]): 912 nM
Activity (Cannabinoid receptor 1 [2]): < 30%
Activity [3]: < 50%
SMILES: O=c1c(NCCc2ccc(F)cc2F)c(Nc2ccc(Cl)cc2)c1=O

SMILES: O=c1c(NCCc2ccc(Cl)cc2Cl)c(Nc2ccc(Cl)cc2)c1=O
Activity [3]: < 50%

IC50 (Cannabinoid receptor 1 [1]): > 10000 nM
Activity (Cannabinoid receptor 1 [2]): < 30%
Activity [3]: < 50%
SMILES: O=c1c(NCCc2cccc(O)c2)c(Nc2ccc(Cl)cc2)c1=O

IC50 (Cannabinoid receptor 1 [1]): 525 nM
Activity (Cannabinoid receptor 1 [2]): < 30%
Activity [3]: < 50%
SMILES: COc1ccc(CCNc2c(Nc3ccc(Cl)cc3)c(=O)c2=O)cc1

IC50 (Cannabinoid receptor 1 [1]): 158 nM
IC50 (Cannabinoid receptor 1 [4]): 646 nM
Activity (Cannabinoid receptor 1 [2]): < 30%
Activity [3]: < 50%
SMILES: Cc1ccc(CCNc2c(Nc3ccc(Cl)cc3)c(=O)c2=O)cc1

IC50 (Cannabinoid receptor 1 [1]): 501 nM
IC50 (Cannabinoid receptor 1 [4]): 617 nM
Activity (Cannabinoid receptor 1 [2]): < 30%
Activity [3]: < 50%
SMILES: CN(C)c1ccc(CCNc2c(Nc3ccc(Cl)cc3)c(=O)c2=O)cc1

IC50 (Cannabinoid receptor 1 [1]): > 10000 nM
Activity (Cannabinoid receptor 1 [2]): < 30%
Activity [3]: < 50%
SMILES: O=c1c(NCc2ccccc2)c(Nc2ccc(Cl)cc2)c1=O

IC50 (Cannabinoid receptor 1 [1]): 832 nM
Activity (Cannabinoid receptor 1 [2]): < 30%
Activity [3]: < 50%
SMILES: O=c1c(NCCc2ccccc2Cl)c(Nc2ccc(Cl)cc2)c1=O

IC50 (Cannabinoid receptor 1 [1]): 871 nM
Activity (Cannabinoid receptor 1 [2]): < 30%
Activity [3]: < 50%
SMILES: O=c1c(NCCCc2ccccc2)c(Nc2ccc(Cl)cc2)c1=O

Activity [3]: < 50%
SMILES: O=C(Nc1ccc(Cl)cc1)Nc1cccc(-c2cccc(N3CCCC3)n2)c1

concentration at 0.5 h [5]: 59.5 ng/mL
CLH [6]: 39.9 µL/min/mg
PPB [7]: > 99%
concentration at 8 h [8]: 4.6 ng/mL
t1/2 [9]: 15.8 min
concentration at 0.25 h [10]: 8.7 ng/mL
Drug excretion [11]: Active
concentration at 0.25 h [12]: 173 ng/mL
PPB [13]: > 99%
Papp [14]: 6.4 10^-6 cm/s
IC50 (Cannabinoid receptor 1 [4]): 214 nM
concentration at 1 h [15]: 12.1 ng/mL
t1/2 [16]: 88.3 min
IC50 (Cannabinoid receptor 1 [17]): 148 nM
t1/2 [18]: 30.6 min
PB [19]: > 99%
concentration at 0.5 h [20]: 11.7 ng/mL
concentration at 8 h [21]: 54.8 ng/mL
Papp [22]: 3.1 10^-6 cm/s
concentration at 1 h [23]: 93.8 ng/mL
EC50 (Cannabinoid receptor 1 [24]): 692 nM
concentration at 5 min [25]: 1240 ng/mL
CLH [26]: 87.8 µL/min/mg
solubility kinetic at 2 h [27]: < 1 µg/mL
SMILES: O=c1c(NCCc2cccc(Cl)c2)c(Nc2ccc(Cl)cc2)c1=O

Activity (Cannabinoid receptor 1 [2]): < 30%
Activity [3]: < 50%
SMILES: O=c1c(NCCN2CCCCC2)c(Nc2ccc(Cl)cc2)c1=O

Activity (Cannabinoid receptor 1 [2]): < 30%
Activity [3]: < 50%
SMILES: O=c1c(NCCc2ccc(N3CCC3)cc2)c(Nc2ccc(Cl)cc2)c1=O

IC50 (Cannabinoid receptor 1 [1]): > 10000 nM
Activity (Cannabinoid receptor 1 [2]): < 30%
Activity [3]: < 50%
SMILES: CCN(CC)c1ccc(CCNc2c(Nc3ccc(Cl)cc3)c(=O)c2=O)cc1

Activity (Cannabinoid receptor 1 [2]): < 30%
Activity [3]: < 50%
SMILES: O=c1c(NCCc2ccc(C(F)(F)F)cc2)c(Nc2ccc(Cl)cc2)c1=O

IC50 (Cannabinoid receptor 1 [1]): 204 nM
Activity (Cannabinoid receptor 1 [2]): < 30%
Activity [3]: < 50%
SMILES: O=c1c(NCCc2ccccc2)c(Nc2ccc(Cl)cc2)c1=O

Activity (Cannabinoid receptor 1 [2]): < 30%
Activity [3]: < 50%
SMILES: COc1ccccc1CCNc1c(Nc2ccc(Cl)cc2)c(=O)c1=O

IC50 (Cannabinoid receptor 1 [1]): > 10000 nM
Activity (Cannabinoid receptor 1 [2]): < 30%
Activity [3]: < 50%
SMILES: CC(=O)c1ccc(CCNc2c(Nc3ccc(Cl)cc3)c(=O)c2=O)cc1

Activity (Cannabinoid receptor 1 [2]): < 30%
Activity [3]: < 50%
SMILES: O=c1c(NCCc2ccncc2)c(Nc2ccc(Cl)cc2)c1=O

Activity (Cannabinoid receptor 1 [2]): < 30%
Activity [3]: < 50%
SMILES: O=c1c(NCCc2ccc(N3CCCC3)cc2)c(Nc2ccc(Cl)cc2)c1=O

Activity (Cannabinoid receptor 1 [2]): < 30%
Activity [3]: < 50%
SMILES: O=c1c(NCCc2ccc(Cl)c(Cl)c2)c(Nc2ccc(Cl)cc2)c1=O

Activity (Cannabinoid receptor 1 [2]): < 30%
Activity [3]: < 50%
SMILES: O=c1c(NCCc2ccc(Cl)cc2)c(Nc2ccc(Cl)cc2)c1=O

SMILES: O=c1c(Nc2ccc(Cl)cc2)c(N2CCN(c3ccc(Cl)cc3)CC2)c1=O
IC50 (Cannabinoid receptor 1 [1]): > 10000 nM
Activity (Cannabinoid receptor 1 [2]): < 30%
Activity [3]: < 50%

Activity (Cannabinoid receptor 1 [2]): < 30%
Activity [3]: < 50%
SMILES: O=c1c(NCCc2ccc(N3CCCCC3)cc2)c(Nc2ccc(Cl)cc2)c1=O

Activity (Cannabinoid receptor 1 [2]): < 30%
Activity [3]: < 50%
SMILES: O=c1c(NCCc2ccccn2)c(Nc2ccc(Cl)cc2)c1=O

IC50 (Cannabinoid receptor 1 [1]): > 10000 nM
Activity (Cannabinoid receptor 1 [2]): < 30%
Activity [3]: < 50%
SMILES: O=c1c(NCCc2ccc(Br)cc2)c(Nc2ccc(Cl)cc2)c1=O

Activity (Cannabinoid receptor 1 [2]): < 30%
Activity [3]: < 50%
SMILES: CN(C)c1cccc(CCNc2c(Nc3ccc(Cl)cc3)c(=O)c2=O)c1

IC50 (Cannabinoid receptor 1 [1]): 195 nM
IC50 (Cannabinoid receptor 1 [4]): 912 nM
Activity (Cannabinoid receptor 1 [2]): < 30%
Activity [3]: < 50%
SMILES: Cc1cccc(CCNc2c(Nc3ccc(Cl)cc3)c(=O)c2=O)c1

Activity (Cannabinoid receptor 1 [2]): < 30%
Activity [3]: < 50%
SMILES: COc1cccc(CCNc2c(Nc3ccc(Cl)cc3)c(=O)c2=O)c1

IC50 (Cannabinoid receptor 1 [1]): 269 nM
IC50 (Cannabinoid receptor 1 [4]): 5620 nM
Activity (Cannabinoid receptor 1 [2]): < 30%
Activity [3]: < 50%
IC50 (Cannabinoid receptor 1 [28]): 6.61 µM
SMILES: O=c1c(NCCc2ccccc2F)c(Nc2ccc(Cl)cc2)c1=O

IC50 (Cannabinoid receptor 1 [1]): 282 nM
Activity (Cannabinoid receptor 1 [2]): < 30%
Activity [3]: < 50%
SMILES: O=c1c(NCCc2cccc(F)c2)c(Nc2ccc(Cl)cc2)c1=O

Activity (Cannabinoid receptor 1 [2]): < 30%
Activity [3]: < 50%
SMILES: O=c1c(NCCc2ccccc2C(F)(F)F)c(Nc2ccc(Cl)cc2)c1=O

IC50 (Cannabinoid receptor 1 [1]): 339 nM
Activity (Cannabinoid receptor 1 [2]): < 30%
Activity [3]: < 50%
SMILES: O=c1c(NCCc2cccc(C(F)(F)F)c2)c(Nc2ccc(Cl)cc2)c1=O

Source: ChEMBL document CHEMBL6109148, “Development of Squaramides as Allosteric Modulators of the CB1 Receptor: Synthesis, Computational Studies, Biological Characterization, and Effects against Cocaine-Induced Behavioral Sensitization and Reinstatement in Rats” (J Med Chem, 2025)
